{"source": "patent US6133279A", "about": "“Therapeutic agents for renal diseases and organ preservatives” (Chugai Seiyaku Kabushiki Kaisha, priority 1996, dated 2000)", "key": {"[1]": {"system": "puromycin-induced nephrosis model", "experiment": "Puromycin-induced nephrosis (2), postadministration (in vivo)", "set-up": "species or system rat (male SD rats)", "settings": "200 mg/kg oral once a day from the day following puromycin", "procedure": "Effect of the compounds of the present invention on an in vivo renal disease was studied using a puromycin-induced nephrosis model. A puromycin-induced renal failure model was prepared from rats in groups of 5-8 each (6 week-old male SD rats) fed with high-fat diet. High-fat diet feeding was started by free access to high-fat diet (cholesterol level 1.25%) from 7 days before puromycin treatment. Puromycin (puromycin aminonucleoside, SIGMA Chemical Co.) treatment was performed by intraperitoneal administration at a dose of 100 mg/kg. Test compounds were administered as a solution in soybean oil via oral route (4 ml/kg). Control group was orally administered soybean oil alone. Probucol and a water-soluble α-tocopherol analogue, Trolox, were used as reference control compounds. The compounds were orally administered once a day from the following day of the puromycin treatment. Renal functions were determined by using urine and blood samples. The volume of urine, urea nitrogen level and creatinine levels of serum and urine were evaluated to calculate creatinine clearance as an indication of renal functions."}, "[2]": {"system": "ischemic acute renal failure model", "experiment": "Ischemic acute renal failure model, renal ischemia 30 minutes (in vivo)", "set-up": "species or system rat (male SD rats)", "settings": "200 mg/kg oral once a day", "procedure": "Effect of a compound of the present invention on an in vivo renal disease was studied using an ischemic acute renal failure model.\nAn ischemic acute renal failure model was prepared from in groups of 8 each rats (male SD rats, weight: 224-285 g) fed with high-fat diet. High-fat diet feeding was started by free access to high-fat diet (cholesterol level 1.25%) from 7 or 8 days prior to unilateral nephrectomy and left renal artery clamping. The test compound was administered as a solution in soybean oil via oral route (4 ml/kg). Control group was orally administered soybean oil alone. The administration of compound was started from 4 or 5 days before the ischemic treatment at a dose of 200 mg/kg once a day. After the ischemia treatment, the oral administration of the compound was continued at a frequency of once a day. The ischemic treatment was performed by removing the right kidney and clipping a renal artery of the left kidney for 30 or 60 minutes.\nRenal functions after ischemic treatment were determined by using urine and blood samples daily collected. Urine volume and the creatinine level of serum and urine were evaluated to calculate creatinine clearance as an indication of renal functions. Influences of high-fat diet feeding were monitored by measuring serum cholesterol level."}}}
{"smiles": "CCCCCC1(CCCCC)Cc2c(cc(C(C)(C)C)c(O)c2C(C)(C)C)O1", "note": "[Example 36, 4,6-Di-t-butyl-2,2-di-n-pentyl-5-hydroxy-2,3-dihydrobenzofuran]", "values": [{"measurement": "Creatinine", "setting": "[1]; control 0.82 ± 0.07", "result": "0.75 ± 0.11", "unit": "mg/dL"}, {"measurement": "Urine nitrogen", "setting": "[1]; control 30.74 ± 10.95", "result": "24.57 ± 10.68", "unit": "mg/dL"}, {"measurement": "Creatinine clearance", "setting": "[1]; control 824 ± 108", "result": "837 ± 205", "unit": "mL/day"}, {"measurement": "Creatinine", "setting": "[2]; 1 day after ischemia (30 minutes), control 1.73 ± 0.73, P < 0.05", "result": "1.06 ± 0.24", "unit": "mg/dL"}, {"measurement": "Creatinine clearance", "setting": "[2]; 1 day after ischemia (30 minutes), control 632 ± 167, P < 0.05", "result": "934 ± 253", "unit": "mL/day"}, {"measurement": "Creatinine", "setting": "[2]; 2 days after ischemia (30 minutes), control 1.84 ± 1.40", "result": "0.96 ± 0.23", "unit": "mg/dL"}, {"measurement": "Creatinine clearance", "setting": "[2]; 2 days after ischemia (30 minutes), control 678 ± 277, P < 0.05", "result": "1095 ± 325", "unit": "mL/day"}, {"measurement": "Creatinine", "setting": "[2]; 3 days after ischemia (30 minutes), control 2.19 ± 2.34", "result": "1.05 ± 0.26", "unit": "mg/dL"}]}
